Test results published in patent US5036050A, “Compositions containing thymopentin for topical treatment of skin disorders” (Immunobiology Research Institute, Inc., priority 1989, dated 1991).
Where no end group is shown, it is not given here.

Tested on: neuromuscular transmission
Test: Neuromuscular assay (electromyography after topical application)
Type: in vivo, guinea pigs
Conditions: 18 hours later
Description: To determine the effect of different formulations and dosages of compositions according to the invention, varying amounts of topical TP5 compositions prepared as described in Example 1B, were applied to the skin of guinea pigs.
A 11/2"×11/2" square section was shaved on each animal's back 24 hours before the application of the thymopentin composition. Four concentrations of thymopentin cream were used (10%, 5%, 2.5% and 1.25%) using Unibase® as a diluent. A total of 100 mg of cream containing either 10 mg, 5 mg, 2.5 mg or 1.25 mg thymopentin was rubbed with a spatula on the shaved skin of each animal. Control animals were treated similarly with the Unibase® carrier only.
Eighteen hours later the neuromuscular transmission of each group of five animals for each concentration was assessed by electromyography as described in Lancet, 12:256-259 (1975).

RKDVY [thymopentin]
neuromuscular change compared to control animals (5% thymopentin cream in Unibase, 100 mg cream (5 mg thymopentin) on shaved skin): Significant neuromuscular change
neuromuscular change compared to control animals (10% thymopentin cream in Unibase, 100 mg cream (10 mg thymopentin) on shaved skin): Significant neuromuscular change
